# Measurements published in US11472769B2, “SSAO inhibitors and use thereof” (Eccogene (Shanghai) Co., Ltd., priority 2019, dated 2022).
# Molecular target: recombinant hSSAO (Homo sapiens (Human), UniProt Q16853)
# Experiment: SSAO Activity Assay (MAO-Glo assay kit)
# Assay type: biochemical
# Conditions: 40 μM substrate, 30 mins pre-incubation
# Experimental: The biological activities of the compounds of the present application can be assessed with methods and assays known in the art. For example, the potency of the compounds of the present application can be evaluated with an SSAO Activity Assay. Briefly, compounds of the present application can be applied to recombinant hSSAO, hMAO-A, and hMAO-B isoforms and the amine oxidase activity of the enzymes are measured after the addition and subsequent oxidation of the luminogenic substrate (e.g., with the MAO-Glo assay kit from Promega). The IC50 can be calculated, for example, by fitting the dose response curve using a 4-parameter non-linear regression routine.
# Amine oxidase activity of recombinant hSSAO, hMAO-A, and hMAO-B isoforms are measured using the MAO-Glo assay kit (Promega, V1402). Ten nL test compounds (with DMSO as vehicle, 0.1% v/v for hSSAO, hMAO-A and hMAO-B) were added into assay plates by Echo, and pre-incubated with 5 μL of enzyme for 30 mins at room temperature before the addition of 5 μL of luminogenic substrate. The substrate concentration is 40 μM for human recombinant SSAO, 40 μM for human recombinant MAO-A, and 4 μM for human recombinant MAO-B. The hSSAO and hMAO-A assays were conducted in the MAO-A reaction buffer in the kit, and the MAO-B assay was conducted in the MAO-B reaction buffer. Oxidation of the substrate was conducted for 1 hr, before the addition of detecting reagent according the manufacture's protocol. The IC50 value of the tested compounds was calculated by fitting the dose response curve using a 4-parameter non-linear regression routine.
# Chain of recombinant hSSAO (Q16853 whole entry): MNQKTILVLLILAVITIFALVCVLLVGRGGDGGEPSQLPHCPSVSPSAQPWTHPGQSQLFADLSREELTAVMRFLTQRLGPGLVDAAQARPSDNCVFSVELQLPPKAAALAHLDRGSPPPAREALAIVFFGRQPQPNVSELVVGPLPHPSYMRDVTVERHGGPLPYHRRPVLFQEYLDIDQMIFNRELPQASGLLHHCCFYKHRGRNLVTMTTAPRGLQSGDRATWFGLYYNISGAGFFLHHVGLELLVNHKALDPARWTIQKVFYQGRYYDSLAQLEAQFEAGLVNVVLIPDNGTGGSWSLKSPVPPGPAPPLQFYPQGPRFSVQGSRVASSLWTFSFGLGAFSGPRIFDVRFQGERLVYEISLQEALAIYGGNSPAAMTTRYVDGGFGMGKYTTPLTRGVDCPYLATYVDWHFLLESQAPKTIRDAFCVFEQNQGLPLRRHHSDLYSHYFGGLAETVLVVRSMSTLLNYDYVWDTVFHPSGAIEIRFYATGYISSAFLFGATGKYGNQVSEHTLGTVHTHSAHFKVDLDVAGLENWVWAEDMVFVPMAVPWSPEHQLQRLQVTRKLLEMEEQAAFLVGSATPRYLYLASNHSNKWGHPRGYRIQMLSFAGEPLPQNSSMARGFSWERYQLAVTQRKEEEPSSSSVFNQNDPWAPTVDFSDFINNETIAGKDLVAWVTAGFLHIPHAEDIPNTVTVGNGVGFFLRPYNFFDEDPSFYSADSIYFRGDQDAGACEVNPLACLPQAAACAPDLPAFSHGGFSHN
row,IC50 [nM],Structure (SMILES)
1,20 to 100,"N#CC1(COCS(=O)(=O)c2ccc(OC/C(=C/F)CN)cc2)CCOCC1 [compound 32, (E)-4-((((4-((2-(aminomethyl)-3-fluoroallyl)oxy)phenyl)sulfonyl)methoxy)methyl)tetrahydro-2H-pyran-4-carbonitrile]"
2,20 to 100,"COCCOCS(=O)(=O)c1ccc(OC/C(=C/F)CN)cc1 [compound 29, (E)-3-fluoro-2-((4-(((2-methoxyethoxy)methyl)sulfonyl)phenoxy)methyl)prop-2-en-1-amine]"
3,20 to 100,"CC(C)C(=O)Nc1ccc(CS(=O)(=O)c2ccc(OC/C(=C/F)CN)cc2)cc1 [compound 45, (E)-N-(4-(((4-((2-(aminomethyl)-3-fluoroallyl)oxy)phenyl)sulfonyl)methyl)phenyl)isobutyramide]"
4,20 to 100,"NC/C(=C\F)COc1ccc(S(=O)(=O)Cn2ccccc2=O)cc1 [compound 121, (E)-1-(((4-((2-(aminomethyl)-3-fluoroallyl)oxy)phenyl)sulfonyl)methyl)pyridin-2(1H)-one]"
5,20 to 100,"NC/C(=C\F)COc1ccc(S(=O)(=O)COC2CCN(C(=O)C3CCCC3)CC2)cc1 [compound 27, (E)-(4-(((4-((2-(aminomethyl)-3-fluoroallyl)oxy)phenyl)sulfonyl)methoxy)piperidin-1-yl)(cyclopentyl)methanone]"
6,20 to 100,"NC/C(=C\F)COc1ccc(S(=O)(=O)Cc2cnc(N3CCCC3)nc2)cc1 [compound 103, (E)-3-fluoro-2-((4-(((2-(pyrrolidin-1-yl)pyrimidin-5-yl)methyl)sulfonyl)phenoxy)methyl) prop-2-en-1-amine]"
7,20 to 100,"COCC(COC)OCS(=O)(=O)c1ccc(OC/C(=C/F)CN)cc1 [compound 36, (E)-2-((4-((((1,3-dimethoxypropan-2-yl)oxy)methyl)sulfonyl)phenoxy)methyl)-3-fluoroprop-2-en-1-amine]"
8,20 to 100,"NC/C(=C\F)COc1ccc(S(=O)(=O)CC2(CN3CCCCC3=O)CC2)cc1 [compound 106, (E)-1-((1-(((4-((2-(aminomethyl)-3-fluoroallyl)oxy)phenyl)sulfonyl)methyl)cyclopropyl)methyl)piperidin-2-one]"
9,100 to 500,"CC(C)N(C)C(=O)C(C)(C)CS(=O)(=O)c1ccc(OC/C(=C/F)CN)cc1 [compound 95, (E)-3-((4-((2-(aminomethyl)-3-fluoroallyl)oxy)phenyl)sulfonyl)-N-isopropyl-N,2,2-trimethylpropanamide]"
10,20 to 100,"CC(C)(CN1CCOCC1)CS(=O)(=O)c1ccc(OC/C(=C/F)CN)cc1 [compound 115, (E)-2-((4-((2,2-dimethyl-3-morpholinopropyl)sulfonyl)phenoxy)methyl)-3-fluoroprop-2-en-1-amine]"
11,20 to 100,"CC(C)C(=O)N1CCC(C)(CS(=O)(=O)c2ccc(OC/C(=C/F)CN)cc2)CC1 [compound 53, (E)-1-(4-(((4-((2-(aminomethyl)-3-fluoroallyl)oxy)phenyl)sulfonyl)methyl)-4-methylpiperidin-1-yl)-2-methylpropan-1-one]"
12,20 to 100,"CC1(COCS(=O)(=O)c2ccc(OC/C(=C/F)CN)cc2)CCN(C(=O)C(C)(C)C)CC1 [compound 34, (E)-1-(4-((((4-((2-(aminomethyl)-3-fluoroallyl)oxy)phenyl)sulfonyl)methoxy)methyl)-4-methylpiperidin-1-yl)-2,2-dimethylpropan-1-one]"
13,20 to 100,"CCN(CC(C)CS(=O)(=O)c1ccc(OC/C(=C/F)CN)cc1)C(=O)C(C)C (centres unmarked) [compound 97, (E)-N-(3-((4-((2-(aminomethyl)-3-fluoroallyl)oxy)phenyl)sulfonyl)-2-methylpropyl)-N-ethylisobutyramide]"
14,20 to 100,"NC/C(=C\F)COc1ccc(S(=O)(=O)CC23CCC(C(=O)NC4CCC4)(CC2)C3)cc1 [compound 143, (E)-4-(((4-((2-(aminomethyl)-3-fluoroallyl)oxy)phenyl)sulfonyl)methyl)-N-cyclobutylbicyclo[2.2.1]heptane-1-carboxamide]"
15,20 to 100,"NC/C(=C\F)COc1ccc(S(=O)(=O)CC2CCOCC2)c(F)c1 [compound 6, (E)-3-fluoro-2-((3-fluoro-4-(((tetrahydro-2H-pyran-4-yl)methyl)sulfonyl)phenoxy)methyl) prop-2-en-1-amine]"
16,20 to 100,"CC(C)n1ccc(CS(=O)(=O)c2ccc(OC/C(=C/F)CN)cc2)cc1=O [compound 101, (E)-4-(((4-((2-(aminomethyl)-3-fluoroallyl)oxy)phenyl)sulfonyl)methyl)-1-isopropylpyridin-2(1H)-one]"

row,IC50 [nM],Structure (SMILES)
1,20 to 100,"NC/C(=C\F)COc1ccc(S(=O)(=O)CC2(O)CCOCC2)cc1 [compound 10, (E)-4-(((4-((2-(aminomethyl)-3-fluoroallyl)oxy)phenyl)sulfonyl)methyl)tetrahydro-2H-pyran-4-ol]"
2,20 to 100,"CC1(COCS(=O)(=O)c2ccc(OC/C(=C/F)CN)cc2)CCOCC1 [compound 31, (E)-3-fluoro-2-((4-((((4-methyltetrahydro-2H-pyran-4-yl)methoxy)methyl)sulfonyl)phenoxy)methyl)prop-2-en-1-amine]"
3,20 to 100,"COCC(COC)CS(=O)(=O)c1ccc(OC/C(=C/F)CN)cc1 [compound 25, (E)-3-fluoro-2-((4-((3-methoxy-2-(methoxymethyl)propyl)sulfonyl)phenoxy)methyl)prop-2-en-1-amine]"
4,20 to 100,"CC1(C)COC(CS(=O)(=O)c2ccc(OC/C(=C/F)CN)cc2)CO1 (centres unmarked) [compound 2, (E)-2-((4-(((5,5-dimethyl-1,4-dioxan-2-yl)methyl)sulfonyl)phenoxy)methyl)-3-fluoroprop-2-en-1-amine]"
5,100 to 500,"NC/C(=C\F)COc1ccc(S(=O)(=O)CN2CCCC2=O)cc1 [compound 117, (E)-1-(((4-((2-(aminomethyl)-3-fluoroallyl)oxy)phenyl)sulfonyl)methyl)pyrrolidin-2-one]"
6,20 to 100,"NC/C(=C\F)COc1ccc(S(=O)(=O)CC2CCN(C(=O)C3CC3)CC2)c(Cl)c1 [compound 60, (E)-(4-(((4-((2-(aminomethyl)-3-fluoroallyl)oxy)-2-chlorophenyl)sulfonyl)methyl)piperidin-1-yl)(cyclopropyl)methanone]"
7,20 to 100,"COC1(CS(=O)(=O)c2ccc(OC/C(=C/F)CN)cc2)CCOCC1 [compound 11, (E)-3-fluoro-2-((4-(((4-methoxytetrahydro-2H-pyran-4-yl)methyl)sulfonyl)phenoxy)methyl) prop-2-en-1-amine]"
8,20 to 100,"NC/C(=C\F)COc1ccc(S(=O)(=O)CC23CCC(C4(NC(=O)C5CC5)CC4)(CC2)CC3)cc1 [compound 16, (E)-N-(1-(4-(((4-((2-(aminomethyl)-3-fluoroallyl)oxy)phenyl)sulfonyl)methyl)bicyclo[2.2.2]octan-1-yl)cyclopropyl) cyclopropanecarboxamide]"
9,20 to 100,"CC(C)C(=O)N1CCC(C)(COCS(=O)(=O)c2ccc(OC/C(=C/F)CN)cc2)CC1 [compound 33, (E)-1-(4-((((4-((2-(aminomethyl)-3-fluoroallyl)oxy)phenyl)sulfonyl)methoxy)methyl)-4-methylpiperidin-1-yl)-2-methylpropan-1-one]"
10,20 to 100,"CC(C)(C)C(=O)N1CCC(CS(=O)(=O)c2ccc(OC/C(=C/F)CN)cc2)CC1 [compound 41, (E)-1-(4-(((4-((2-(aminomethyl)-3-fluoroallyl)oxy)phenyl)sulfonyl)methyl)piperidin-1-yl)-2,2-dimethylpropan-1-one]"
11,20 to 100,"CC(C)C(=O)N1CC(CS(=O)(=O)c2ccc(OC/C(=C/F)CN)cc2)C1 [compound 52, (E)-1-(3-(((4-((2-(aminomethyl)-3-fluoroallyl)oxy)phenyl)sulfonyl)methyl)azetidin-1-yl)-2-methylpropan-1-one]"
12,20 to 100,"NC/C(=C\F)COc1ccc(S(=O)(=O)COC2CCOCC2)cc1 [compound 26, (E)-3-fluoro-2-((4-((((tetrahydro-2H-pyran-4-yl)oxy)methyl)sulfonyl)phenoxy)methyl)prop-2-en-1-amine]"
13,20 to 100,"CC(C)N1CCN(CS(=O)(=O)c2ccc(OC/C(=C/F)CN)cc2)C(=O)C1 [compound 135, (E)-1-(((4-((2-(aminomethyl)-3-fluoroallyl)oxy)phenyl)sulfonyl)methyl)-4-isopropylpiperazin-2-one]"
14,20 to 100,"NC/C(=C\F)COc1ccc(S(=O)(=O)CC23CCC(C(=O)N4CCC(F)(F)CC4)(CC2)CC3)cc1 [compound 63, (E)-(4-(((4-((2-(aminomethyl)-3-fluoroallyl)oxy)phenyl)sulfonyl)methyl)bicyclo[2.2.2]octan-1-yl)(4,4-difluoropiperidin-1-yl)methanone]"
15,20 to 100,"CN(C(=O)C1CC1)C12CCC(CS(=O)(=O)c3ccc(OC/C(=C/F)CN)cc3)(CC1)CC2 [compound 78, (E)-N-(4-(((4-((2-(aminomethyl)-3-fluoroallyl)oxy)phenyl)sulfonyl)methyl)bicyclo[2.2.2]octan-1-yl)-N-methylcyclopropanecarboxamide]"
16,20 to 100,"NC/C(=C\F)COc1ccc(S(=O)(=O)CC23CC(C(=O)NC4CCC4)(C2)C3)cc1 [compound 138, (E)-3-(((4-((2-(aminomethyl)-3-fluoroallyl)oxy)phenyl)sulfonyl)methyl)-N-cyclobutylbicyclo[1.1.1]pentane-1-carboxamide]"
